According to patent US12085564B2, “Assay to determine in vivo receptor occupancy” (BRISTOL-MYERS SQUIBB COMPANY, priority 2018, dated 2024):

Target: T1, Recombinant BTK (Homo sapiens, UniProt Q06187)
T1 construct: purchased Life Technologies (Carlsbad, CA) PV3587
Assay: Preparation of DB-BTK / QB-BTK reference standards: covalent reaction of recombinant BTK with excess drug or quencher
Type: biochemical
Details: recombinant BTK 5.9 μM, excess amount of drug, RT for 1 h
Protocol: Recombinant BTK (5.9 μM, 200 μL) was combined with 400 μL of PBS, and then spiked with 15 μL of 1.0 mg/mL drug solution (compound shown in FIG. 1A) in acetonitrile (2701 μM drug, 15 μL). The solution was then incubated at RT for 1 h, resulting in a DB-BTK concentration of 1919 nM.
Recombinant BTK (5.9 μM, 200 μL) was combined with 400 μL of PBS, and then spiked with 15 μL of 1.0 mg/mL quencher solution (compound shown in FIG. 1B) in acetonitrile (2806 μM quencher, 15 μL). The solution was incubated at RT for 1 h, resulting in a QB-BTK concentration of 1919 nM.

T1 sequence (Q06187 whole entry): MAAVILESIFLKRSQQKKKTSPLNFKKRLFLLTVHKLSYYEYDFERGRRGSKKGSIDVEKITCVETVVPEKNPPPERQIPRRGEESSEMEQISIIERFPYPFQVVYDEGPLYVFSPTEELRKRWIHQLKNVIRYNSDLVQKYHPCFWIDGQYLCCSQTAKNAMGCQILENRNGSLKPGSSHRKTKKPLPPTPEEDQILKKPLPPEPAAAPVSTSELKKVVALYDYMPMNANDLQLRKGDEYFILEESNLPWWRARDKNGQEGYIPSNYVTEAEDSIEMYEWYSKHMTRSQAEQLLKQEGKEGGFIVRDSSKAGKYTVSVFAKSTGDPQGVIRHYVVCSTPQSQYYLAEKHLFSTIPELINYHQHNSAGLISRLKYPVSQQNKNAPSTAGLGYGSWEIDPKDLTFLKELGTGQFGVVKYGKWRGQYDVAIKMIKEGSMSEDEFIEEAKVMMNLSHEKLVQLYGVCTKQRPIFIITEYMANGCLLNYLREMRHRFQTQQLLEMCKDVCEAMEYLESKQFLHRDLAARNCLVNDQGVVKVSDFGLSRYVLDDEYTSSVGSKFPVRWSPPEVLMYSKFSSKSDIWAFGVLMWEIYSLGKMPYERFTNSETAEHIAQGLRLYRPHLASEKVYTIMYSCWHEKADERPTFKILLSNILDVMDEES

conversion of free BTK to DB-BTK: ~100%
SMILES: CC#CC(=O)N[C@H]1CCCN(c2c(F)cc(C(N)=O)c3[nH]c(C)c(C)c23)C1 [compound shown in FIG. 1A]
